This note sets out measurements from patent EP3577173B1, “COMPOSITIONS CONTAINING FATTY ACID ESTERS OF VEGETABLE ORIGIN AS SOLVENTS” (Benessere, Vincenzo, priority 2017, dated 2018).

The nature of data set [1]: Dissolution time of resin in solvent until the solution is clear (base for coating materials). In kind it is physicochemical. As to conditions: magnetic stirring, time when solution becomes clear and no deposit is found. As to the method: Three commercial solvents (D100, mineral oil; 7129, 2-ethylhexyl palmitate; PARYOL TMC 810T, caprylic/capric triglyceride) and the solvents described in examples 1-4 were used. The resins of Example 1 and the chosen solvent were placed on a heating plate under magnetic stirring at 80 °C for one hour, and then allowed to cool to ambient temperature for 24 hrs. Table 1. ROSIN MODIFIED ESTER RESIN BASED PAINTS

A short description of data set [2]: Dynamic light scattering of 5% by weight resin solution (solvent power). In kind it is physicochemical. As to conditions: DLS. The text has this: A first assessment of the higher solvent power of pelargonic acid esters with respect to the classical solvents can be performed by means of the analysis of the data obtained with the dynamic light scattering technique (SMD 6000 Laser Quantum apparatus,50 mW source of light beam at 532.5 nm) carried out on the solution at 5% by weight of modified phenolic (Table 3) and Maleic (Table 4)Resin, solubilized with traditional mineral solvents (base mineral oilD100), traditional vegetal oil (RADIA 7129) and the solvents of the present invention. The DLS technique (Dynamic Light Scattering) allows to monitor the intensity depending on time of the light scattered by an object into a solution. The speed of fluctuation of the light intensity depends on the speed with which the element capable of generating such scattering moves into a solution; the latter is described by the diffusion coefficient D, which is related to the size of the particles into the solution, in particular to the hydrodynamic radius RI of a ball moving in a solvent having a viscosity η, according to the Stokes-Einstein equation: D = (kT)/(6πηRi) [formula] where k is the Boltzmann constant and T is the temperature.
The measurements of the dynamic light scattering allowed to evaluate the capacity of different solvents, used to disperse the two resins, to generate sub-micrometric aggregates: K16 and a maleic resin. This dispersion capacity is linked to the solvent capacity of individual substances. The lower is the size of aggregates, the better is the solvent power for the solute concerned. In the case of the present invention, the solvent consists of the compounds of general formula (I) and solutes are modified PHENOLIC RESINS and MALEIC RESINS. In this case, the smaller is the hydrodynamic radius, better is the solvation degree of the resin by the solvent, which is therefore better than solvents giving a lower solvation degree, and therefore a larger hydrodynamic radius relative to the same resins. The hydrodynamic radii found by DLS for the solvents used by us are the lowest compared to the other commercially available solventsstudied. The high solvent power, therefore confirmed by the hydrodynamic radius, has a huge impact on the paint final properties and on the production mode. The final properties are affected by the fact that the higher solvent power of our compounds allows to dissolve the rosin and maleic resins up to 70% by weight, and therefore allow to produce paints having a high degree of gloss and very high surface resistance, since these latter properties depend on the amount of resin that a solvent can dissolve to form a paint. In addition, the production mode of the paint was performed at 80°C instead of 200°C because our compounds are more solvent with respect to the commercially available ones and need a lower operating temperature in order to dissolve completely and appropriately the resins concerned.
Actually, in samples having a good resin dispersion, which are clear, particles with sub-micrometric size (2-300 nm) are obtained; sizes are associated with the presence of more or less large aggregates. In the extreme cases of precipitation phenomena (> 1000 nm), the sample appears cloudy, and this is associated with a very poor resin dispersion.
In our case, from the data shown in Tables 1 and 2 of Example 3 it can be clearly seen that […] for the solvents of the invention, and therefore the size of the aggregates, is considerably lower than in solvents commercially available at present for dispersing modified phenolic resins and maleic resins. […] A 5% w/w modified synthetic phenolic resin was used for the mixtures to be tested by DLS obtained industrially by esterification of rosin with pentaerythritol, and subsequent polymerization with phenol, trade name SIRIUS XVI, supplied by YSER. The Maleic Resin used is Perseus I supplied by Yser. Table 3. ROSIN MODIFIED ESTER RESIN

The mark [3] stands for this setting: 5% w/w Perseus I resin in the solvent.
Where [4] appears, read: 5% w/w SIRIUS XVI resin in the solvent.

As to `CCCCCC(=O)OCCCC` [CAOBu, butyl caproate], in data set [1] (maleic resin), the “45% resin (dissolution time at 80 °C, min)” value (shortened to “45% resin”) is listed as more than 60 min and the “55% resin (dissolution time at 80 °C, min)” value (shortened to “55% resin”) was “A clear solution is not obtained after 4 hrs”. Besides, in data set [1] (rosin modified ester resin), the “45% resin” value is on record as more than 60 min and the “55% resin” value is “A clear solution is not obtained after 2 hrs”.

Take `CCCCCCOC(=O)CCCCC` [CAOEs, hexyl caproate]: in data set [1] (maleic resin), the “45% resin” value is more than 60 min and the “55% resin” value is reported as “A clear solution is not obtained after 4 hrs”. Moreover, in data set [1] (rosin modified ester resin), the “45% resin” value is on record as more than 60 min and the “55% resin” value is reported as “A clear solution is not obtained after 2 hrs”.

As to `CCCCCC(=O)OCC(CC)CCCC` (stereo not shown) [CAOEtEs, 2-ethyl-hexyl caproate], in data set [1] (rosin modified ester resin), the “45% resin” value was more than 60 min and the “55% resin” value is listed as “A clear solution is not obtained after 2 hrs”.

For the compound `CCCCCCCCOC(=O)CCCCC` [CAOOt, octyl caproate], the “45% resin” value in data set [1] (maleic resin) and in data set [1] (rosin modified ester resin) was more than 60 min throughout. The “55% resin” value is given as “A clear solution is not obtained after 4 hrs” in data set [1] (maleic resin) and “A clear solution is not obtained after 2 hrs” in data set [1] (rosin modified ester resin).

For `CCCCCC(=O)OC(C)C` [CAOiPr, isopropyl caproate], in data set [1] (maleic resin), the “45% resin” value is on record as more than 60 min and the “55% resin” value is recorded as “A clear solution is not obtained after 4 hrs”. In addition, in data set [1] (rosin modified ester resin), the “45% resin” value is more than 60 min and the “55% resin” value is on record as “A clear solution is not obtained after 2 hrs”.

Consider `CCCCCCCCCCCC(=O)OCCCC` [LAOBu, butyl laurate], for which, in data set [1] (maleic resin), the “45% resin” value is more than 60 min and the “55% resin” value is reported as “A clear solution is not obtained after 2 hrs”. Further, in data set [1] (rosin modified ester resin), the “45% resin” value was more than 60 min and the “55% resin” value was “A clear solution is not obtained after 2 hrs”.

On to `CCCCCCCCCCCC(=O)OCCCCCC` [LAOEs, hexyl laurate], for which, in data set [1] (maleic resin), the “45% resin” value is more than 60 min and the “55% resin” value is reported as “A clear solution is not obtained after 2 hrs”. Besides, in data set [1] (rosin modified ester resin), the “45% resin” value is recorded as more than 60 min and the “55% resin” value was “A clear solution is not obtained after 2 hrs”.

In the case of `CCCCCCCCCCCC(=O)OCC(CC)CCCC` (stereo not shown) [LAOEtEs, 2-ethyl-hexyl laurate], in data set [1] (maleic resin), the “45% resin” value is recorded as more than 60 min and the “55% resin” value is “A clear solution is not obtained after 2 hrs”. Further, in data set [1] (rosin modified ester resin), the “45% resin” value is on record as more than 60 min and the “55% resin” value was “A clear solution is not obtained after 2 hrs”.

Take `CCCCCCCCCCCC(=O)OCCCCCCCC` [LAOOt, octyl laurate]: in data set [1] (maleic resin), the “45% resin” value was more than 60 min and the “55% resin” value is reported as “A clear solution is not obtained after 2 hrs”. For the same compound, in data set [1] (rosin modified ester resin), the “45% resin” value is more than 60 min and the “55% resin” value is “A clear solution is not obtained after 2 hrs”.

`CCCCCCCCCCCC(=O)OC(C)C` [LAOiPr, isopropyl laurate]: in data set [1] (maleic resin), the “45% resin” value is listed as more than 60 min and the “55% resin” value is on record as “A clear solution is not obtained after 2 hrs”. Moreover, in data set [1] (rosin modified ester resin), the “45% resin” value is on record as more than 60 min and the “55% resin” value is reported as “A clear solution is not obtained after 2 hrs”.

For `CCCCCCCCC(=O)OCCCC` [PAOBu, butylpelargonate], in data set [1] (maleic resin), the “45% resin” value is 15 min and the “55% resin” value turned out to be 20 min. In data set [1] (rosin modified ester resin), the “45% resin” value is listed as 13 min and the “55% resin” value is recorded as 14 min. For the same compound, in data set [2] (setting [3]), the “Hydrodynamic radius (nm)” value was determined as 2.34 ± 0.8 nm and the Polydispersity index worked out at 0.70±0.06. Besides, in data set [2] (setting [4]), the “Hydrodynamic radius (nm)” value was 12.9 ± 0.4 nm and the Polydispersity index amounted to 0.71±0.06.

`CCCCCCCCC(=O)OCC(CC)CCCC` (stereo not shown) [PAOEtEs, 2-ethyl-hexyl pelargonate]: in data set [1] (maleic resin), the “45% resin” value was 60 min and the “55% resin” value is given as “Clear solution”. For the same compound, in data set [1] (rosin modified ester resin), the “45% resin” value was determined as 50 min and the “55% resin” value is reported as “Clear solution”.

`CCCCCCCCC(=O)OC` [PAOMe, methylpelargonate]: the entries for the “45% resin” value in data set [1] (maleic resin) and in data set [1] (rosin modified ester resin) were 10 min and 15 min, respectively. The “55% resin” value in data set [1] (maleic resin) is on record as 15 min; in data set [1] (rosin modified ester resin), 16 min. Also, the “Hydrodynamic radius (nm)” value is recorded as 1.7±0.6 nm in data set [2] (setting [3]) and 8.9 ± 0.9 nm in data set [2] (setting [4]). For the same compound, the Polydispersity index in data set [2] (setting [3]) stood at 0.90±0.42; in data set [2] (setting [4]), 0.76±0.11.

Regarding `CCCCCCCCC(=O)OC(C)C` [PAOiPr, isopropyl pelargonate], in data set [1] (maleic resin), the “45% resin” value stood at 10 min and the “55% resin” value worked out at 15 min. Also, in data set [1] (rosin modified ester resin), the “45% resin” value was 13 min and the “55% resin” value came to 15 min. In data set [2] (setting [3]), the “Hydrodynamic radius (nm)” value is 2.74±0.11 nm and the Polydispersity index is on record as 1.0±0.3. Further, in data set [2] (setting [4]), the “Hydrodynamic radius (nm)” value was found to be 9.2 ± 1.3 nm and the Polydispersity index came out at 0.64±0.14.

`CCCCCCCCCCCCCCCC(=O)OCC(CC)CCCC` (stereo not shown) [Solvent 7129, 2-ethylhexyl palmitate]: in data set [1] (rosin modified ester resin), the “45% resin” value was more than 60 min and the “55% resin” value was “A clear solution is not obtained after 2 hrs”. Moreover, in data set [2] (maleic resin dispersed in the solvent), the aggregate sizes entry was “exceeding the limit of detectability by DLS”. In addition, the aggregate sizes entry in data set [2] (modified phenolic resin dispersed in the solvent) is recorded as “exceeding the limit of detectability by DLS”.
